EP0514216A1, “Antihypotensive benzofuran derivatives with N-linked 1H-imidazolyl-methyl-5-carboxamide substituents” (GLAXO GROUP LIMITED, priority 1991, dated 1992)

System: renal-ligated hypertensive rats
Experiment: anti-hypertensive activity in vivo using renal-ligated hypertensive rats
Set-up: unit not given here
Details: for Reduction in diastolic blood pressure after 7h. i.a.: 0.5mg/kg intra-arterially (i.a.); for Reduction in diastolic blood pressure after 7h. p.o.: 0.5mg/kg orally (p.o.)
Experimental: Compounds of the present invention are also analysed for their anti-hypertensive activity in vivo using renal-ligated hypertensive rats.

| Compound | Reduction in diastolic blood pressure after 7h. i.a. | Reduction in diastolic blood pressure after 7h. p.o. |
| --- | --- | --- |
| CCc1nc(Cl)c(C(N)=O)n1Cc1ccc2oc(-c3ccccc3NS(=O)(=O)C(F)(F)F)c(Br)c2c1 [Example 1, 1-[[3-Bromo-2-[2-[[(trifluoromethyl)sulphonyl]amino]phenyl]-5-benzofuranyl]methyl]-4-chloro-2-ethyl-1H-imidazole-5-carboxamide] | -49 | -55 |
| CCCc1nc(Cl)c(C(=O)NC)n1Cc1ccc2oc(-c3ccccc3NS(=O)(=O)C(F)(F)F)c(Br)c2c1 [Example 2, 1-[[3-Bromo-2-[2-[[(trifluoromethyl)sulphonyl]amino]phenyl]-5-benzofuranyl]methyl]-4-chloro-N-methyl-2-propyl-1H-imidazole-5-carboxamide] | -43 | -60 |
| CCc1nc(Cl)c(C(=O)NC)n1Cc1ccc2oc(-c3ccccc3NS(=O)(=O)C(F)(F)F)c(Br)c2c1 [Example 12, 1-[[3-Bromo-2-[2-[[(trifluoromethyl)sulphonyl]amino]phenyl]-5-benzofuranyl]methyl]-4-chloro-2-ethyl-N-methyl-1H-imidazole-5-carboxamide] | -42 | -31 |
| CCc1nc(C)c(C(=O)NC)n1Cc1ccc2oc(-c3ccccc3NS(=O)(=O)C(F)(F)F)c(Br)c2c1 [Example 13, 1-[[3-Bromo-2-[2-[[(trifluoromethyl)sulphonyl]amino]phenyl]-5-benzofuranyl]methyl]-2-ethyl-4-methyl-N-methyl-1H-imidazole-5-carboxamide] | -39 | -54 |
